US20240116946A1 (Gilead Sciences, Inc., priority 2022, published 2024)
Read-outs that look alike come from different tables or passages of the source.

Experiments:
SARS-CoV-2-NLuc = test: microbe, parasite or virus in culture; format: cell-based, SARS Coronavirus 2
[1] = molecular target: recombinant SARS-CoV-2 Main protease (Mpro) (Severe acute respiratory syndrome coronavirus 2 (2019-nCoV) (SARS-CoV-2), UniProt P0DTD1); test: Cov Mpro Biochemical IC50 Assay; conditions: read-out: MPro IC50
[2] = recombinant SARS-CoV-2 Mpro 7.5 nM, fluorogenic peptide substrate 40 μM
[3] = Severe acute respiratory syndrome coronavirus, 48 h, read-out: MPro EC50
[4] = recombinant SARS-CoV-2 Mpro, fluorogenic peptide substrate
[5] = Severe acute respiratory syndrome coronavirus, 48 h; read-out: MPro EC50

Row | Compound | EC50 (SARS-CoV-2-NLuc; read-out: MPro EC50) | IC50 [1, 2] | EC50 (SARS-CoV-2-NLuc; [3]) | IC50 [1, 4] | EC50 (SARS-CoV-2-NLuc; [5])
1 | COc1cc(-c2cc3c(s2)c(=O)n(-c2cncc(Cl)c2C)c(=O)n3CCC#N)c(Cl)cc1F (single isomer, unassigned) [Example 1032, 3-[6-(2-chloro-4-fluoro-5-methoxy-phenyl)-3-(5-chloro-4-methyl-3-pyridyl)-2,4-dioxo-thieno[3,2-d]pyrimidin-1-yl]propanenitrile] | 2.02 nM | 1.99 nM |  |  | 
2 | O=c1[nH]c2cc(-c3cc(C(F)(F)F)ccc3Cl)ccc2c(=O)n1-c1cncc2ccccc12 [Example 180] |  |  | 1960 nM | 3740 nM | 
3 | CC(C)c1cncc(-n2c(=O)[nH]c3cc(-c4ccccc4Cl)sc3c2=O)c1 [Example 376] |  |  | 47300 nM | 43300 nM | 
4 | O=c1[nH]c2cc(-c3c(Cl)cccc3-c3ccccc3)ccc2c(=O)n1-c1cncc2ccccc12 [Example 103] |  |  | 83.4 nM | 388 nM | 
5 | Cn1ccc2cccc(-c3ccc4c(=O)n(-c5cncc6ccccc56)c(=O)[nH]c4c3)c21 [Example 41] |  |  |  | 1480 nM | 3840 nM
6 | COc1cc(-c2cc3[nH]c(=O)n(-c4cncc5ccccc45)c(=O)c3s2)c(Cl)cc1F (single isomer, unassigned) [Example 556, 6-(2-chloro-4-fluoro-5-methoxyphenyl)-3-(isoquinolin-4-yl)thieno[3,2-d]pyrimidine-2,4(1H,3H)-dione] | 2.04 nM | 3.41 nM |  |  | 
7 | COc1ccc(Cl)c(-c2cc3[nH]c(=O)n(-c4cncc5cnn(C)c45)c(=O)c3s2)c1 [Example 498] |  | < 2.54 nM | < 5.96 nM |  | 
8 | COc1cc(-c2cc3[nH]c(=O)n(-c4cncc5ccn(C)c45)c(=O)c3s2)c(Cl)cc1F (single isomer, unassigned) [Example 957, 6-(2-chloro-4-fluoro-5-methoxyphenyl)-3-(1-methyl-1H-pyrrolo[3,2-c]pyridin-7-yl)thieno[3,2-d]pyrimidine-2,4(1H,3H)-dione] | 2.65 nM | 2.22 nM |  |  | 
9 | O=c1[nH]c2cc(-c3ccccc3Cl)sc2c(=O)n1-c1cncc2ccc(F)cc12 [Example 622, 6-(2-chlorophenyl)-3-(6-fluoroisoquinolin-4-yl)thieno[3,2-d]pyrimidine-2,4(1H,3H)-dione] |  | 15.4 nM |  |  | 39.3 nM
10 | Cc1ccc2nn(C)cc2c1-c1cc2[nH]c(=O)n(-c3cncc4cnn(C)c34)c(=O)c2s1 [Example 1015] |  | 50.9 nM | 597 nM |  | 
11 | COc1cc(-c2cc3c(s2)c(=O)n(-c2cncc4cnn(C)c24)c(=O)n3CCC#N)c(Cl)cc1F (single isomer, unassigned) [Example 644, 3-[6-(2-chloro-4-fluoro-5-methoxy-phenyl)-3-(1-methylpyrazolo[4,3-c]pyridin-7-yl)-2,4-dioxo-thieno[3,2-d]pyrimidin-1-yl]propanenitrile] | 1.55 nM | 3.1 nM |  |  | 
12 | N#CCCn1c(=O)n(-c2cncc(OC(F)F)c2)c(=O)c2sc(-c3ccccc3C#N)cc21 [Example 816] |  | 58.1 nM |  |  | 342 nM
13 | COc1cc(-c2cc3c(s2)c(=O)n(-c2cncc4ccc(C)nc24)c(=O)n3CCC#N)c(Cl)cc1F [Example 906] |  | 4.35 nM | 2.41 nM |  | 
14 | Cc1cncc(-n2c(=O)c3sc(-c4ccccc4C#N)cc3n(CC3(C#N)CC3)c2=O)c1 [Example 802] |  | 3.02 nM |  |  | 7.09 nM
15 | Cn1nnc2cncc(-n3c(=O)c4sc(-c5ccccc5C#N)cc4n(CCC#N)c3=O)c21 [Example 877] |  | 54.1 nM | 216 nM |  | 
16 | Cn1nnc2cncc(-n3c(=O)c4sc(-c5ccc(F)cc5Cl)cc4n(CCC#N)c3=O)c21 [Example 773, 3-[6-(2-chloro-4-fluoro-phenyl)-3-(1-methyltriazolo[4,5-c]pyridin-7-yl)-2,4-dioxo-thieno[3,2-d]pyrimidin-1-yl]propanenitrile] |  | 25.5 nM | 67.5 nM |  | 
17 | COc1cc(-c2cc3[nH]c(=O)n(-c4cncc(Cl)c4Cl)c(=O)c3s2)c(Cl)cc1F [Example 742] |  | 15.2 nM | 26.2 nM |  | 
18 | O=c1c2sc(-c3cccc4c3CCC4)cc2n(Cc2ccc(O)cc2)c(=O)n1-c1cncc2ccccc12 [Example 169] | 744 nM |  |  | 5550 nM | 
